In ChEMBL document CHEMBL5584238, “Psammaplin A analogues with modified disulfide bond targeting histone deacetylases: Synthesis and biological evaluation” (Eur J Med Chem, 2024):
Active and inactive are the calls of the source. The rule behind the calls is not given here.

What was measured:
[1] = molecular target: T1, Protein deacetylase HDAC6 (Homo sapiens, UniProt Q9UBN7); assay: Inhibition of recombinant human HDAC6 using Boc-Lys(Ac)-AMC as substrate preincubated for 1 hr followed by substrate addition and measured after 2 hrs by microplate reader assay
T1 sequence (Q9UBN7 whole entry): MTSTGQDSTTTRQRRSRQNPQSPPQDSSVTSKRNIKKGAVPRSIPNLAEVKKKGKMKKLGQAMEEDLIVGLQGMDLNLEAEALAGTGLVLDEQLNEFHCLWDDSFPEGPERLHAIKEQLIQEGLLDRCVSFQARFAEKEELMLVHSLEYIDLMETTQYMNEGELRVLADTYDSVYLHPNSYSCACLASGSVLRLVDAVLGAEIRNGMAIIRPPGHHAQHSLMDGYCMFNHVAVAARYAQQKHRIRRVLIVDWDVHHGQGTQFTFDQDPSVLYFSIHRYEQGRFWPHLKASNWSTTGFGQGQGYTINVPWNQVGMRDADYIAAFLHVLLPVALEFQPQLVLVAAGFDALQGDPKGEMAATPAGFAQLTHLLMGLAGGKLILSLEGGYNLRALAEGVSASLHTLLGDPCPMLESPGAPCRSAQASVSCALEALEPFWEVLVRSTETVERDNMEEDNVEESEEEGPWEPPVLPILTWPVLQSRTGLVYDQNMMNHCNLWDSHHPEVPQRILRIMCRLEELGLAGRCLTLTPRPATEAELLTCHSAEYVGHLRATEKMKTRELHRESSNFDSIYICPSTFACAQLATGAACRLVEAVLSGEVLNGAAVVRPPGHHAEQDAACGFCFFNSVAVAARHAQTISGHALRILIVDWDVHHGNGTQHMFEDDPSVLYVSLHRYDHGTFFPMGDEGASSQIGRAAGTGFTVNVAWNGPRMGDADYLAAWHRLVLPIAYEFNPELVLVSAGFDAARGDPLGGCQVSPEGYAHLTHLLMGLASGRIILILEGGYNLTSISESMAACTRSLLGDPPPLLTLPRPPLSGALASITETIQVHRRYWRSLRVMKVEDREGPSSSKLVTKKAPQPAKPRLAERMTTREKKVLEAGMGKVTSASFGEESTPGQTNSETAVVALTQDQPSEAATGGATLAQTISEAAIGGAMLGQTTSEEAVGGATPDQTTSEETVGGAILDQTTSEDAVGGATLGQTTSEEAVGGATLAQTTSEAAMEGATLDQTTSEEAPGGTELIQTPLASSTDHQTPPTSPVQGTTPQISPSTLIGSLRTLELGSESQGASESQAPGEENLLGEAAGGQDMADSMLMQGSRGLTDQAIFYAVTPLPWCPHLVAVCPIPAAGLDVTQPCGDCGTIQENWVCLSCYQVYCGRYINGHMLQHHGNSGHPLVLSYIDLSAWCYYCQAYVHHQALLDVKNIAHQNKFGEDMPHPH

[2] = molecular target: T2, Class 1 histone deacetylase (Homo sapiens) (UniProt Q13547+O15379+Q92769+Q9BY41); assay: Inhibition of class 1 HDACs in human HCT-116 cells assessed as upregulation of acetylated alpha-H3 level at 1 uM incubated for 24 hrs by Western blotting analysis; format: cell-based
T2 sequence (O15379 whole entry, looked up): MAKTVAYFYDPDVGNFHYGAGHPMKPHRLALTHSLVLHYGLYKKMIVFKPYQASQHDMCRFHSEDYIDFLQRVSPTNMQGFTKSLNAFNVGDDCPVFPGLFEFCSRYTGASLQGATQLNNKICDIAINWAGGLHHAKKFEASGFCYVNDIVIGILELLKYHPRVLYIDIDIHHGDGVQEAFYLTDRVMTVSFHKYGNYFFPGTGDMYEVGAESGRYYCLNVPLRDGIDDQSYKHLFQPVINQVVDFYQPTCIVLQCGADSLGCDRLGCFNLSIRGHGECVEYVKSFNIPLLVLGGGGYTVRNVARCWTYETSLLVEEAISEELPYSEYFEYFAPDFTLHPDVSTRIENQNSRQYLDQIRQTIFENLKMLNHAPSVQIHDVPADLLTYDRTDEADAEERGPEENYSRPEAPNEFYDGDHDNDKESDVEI
T2 sequence (Q13547 whole entry, looked up): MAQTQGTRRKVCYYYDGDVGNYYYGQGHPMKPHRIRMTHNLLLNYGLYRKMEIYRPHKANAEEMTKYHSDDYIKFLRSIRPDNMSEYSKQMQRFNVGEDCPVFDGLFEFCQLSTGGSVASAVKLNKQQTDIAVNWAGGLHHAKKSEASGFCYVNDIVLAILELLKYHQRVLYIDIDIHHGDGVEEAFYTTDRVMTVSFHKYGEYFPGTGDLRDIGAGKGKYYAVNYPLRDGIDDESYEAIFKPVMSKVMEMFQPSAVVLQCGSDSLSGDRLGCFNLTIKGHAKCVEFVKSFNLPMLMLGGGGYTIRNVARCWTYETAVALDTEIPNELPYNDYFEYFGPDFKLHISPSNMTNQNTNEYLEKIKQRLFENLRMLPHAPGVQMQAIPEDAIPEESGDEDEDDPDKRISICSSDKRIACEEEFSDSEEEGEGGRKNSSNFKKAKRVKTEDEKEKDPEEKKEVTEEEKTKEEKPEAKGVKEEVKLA
T2 sequence (Q92769 whole entry, looked up): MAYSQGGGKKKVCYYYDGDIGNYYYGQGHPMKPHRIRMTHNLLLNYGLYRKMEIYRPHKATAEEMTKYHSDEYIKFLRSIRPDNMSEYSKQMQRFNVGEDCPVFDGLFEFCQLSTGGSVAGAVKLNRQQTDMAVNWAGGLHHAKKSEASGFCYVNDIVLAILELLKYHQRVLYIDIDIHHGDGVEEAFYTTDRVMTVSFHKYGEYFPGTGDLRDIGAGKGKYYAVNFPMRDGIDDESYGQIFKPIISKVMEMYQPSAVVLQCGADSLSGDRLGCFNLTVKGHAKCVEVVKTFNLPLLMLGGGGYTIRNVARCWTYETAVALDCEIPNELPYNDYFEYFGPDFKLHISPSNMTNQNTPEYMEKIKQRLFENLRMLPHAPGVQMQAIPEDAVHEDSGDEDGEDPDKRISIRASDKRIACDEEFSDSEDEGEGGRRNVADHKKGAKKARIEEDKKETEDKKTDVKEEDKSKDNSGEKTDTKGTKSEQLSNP
T2 sequence (Q9BY41 whole entry, looked up): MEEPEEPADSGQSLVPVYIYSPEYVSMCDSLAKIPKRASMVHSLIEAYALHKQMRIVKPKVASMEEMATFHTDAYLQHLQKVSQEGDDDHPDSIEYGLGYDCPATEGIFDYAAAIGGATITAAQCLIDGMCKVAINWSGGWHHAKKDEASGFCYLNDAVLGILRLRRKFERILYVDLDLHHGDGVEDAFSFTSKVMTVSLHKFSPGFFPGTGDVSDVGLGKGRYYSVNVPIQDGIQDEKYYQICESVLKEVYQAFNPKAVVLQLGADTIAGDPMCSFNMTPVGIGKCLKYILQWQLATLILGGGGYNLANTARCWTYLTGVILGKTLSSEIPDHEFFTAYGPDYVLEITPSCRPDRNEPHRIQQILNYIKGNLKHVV

[3] = molecular target: T3, Protein deacetylase HDAC6 (Homo sapiens) (UniProt Q9UBN7); assay: Inhibition of HDAC6 in human HCT-116 cells assessed as upregulation of acetylated alpha-tubulin level at 1 uM incubated for 24 hrs by Western blotting analysis; format: cell-based
T3 sequence (whole entry): T1 sequence (Q9UBN7 whole entry)

[4] = tested on: NCI-H1581; assay: Antiproliferative activity against human NCI-H1581 cells incubated for 48 hrs by MTT assay; format: functional, cell-based; conditions: NCI-H1581, 48 h
[5] = tested on: HCT-116; assay: Antiproliferative activity against human HCT-116 cells incubated for 48 hrs by MTT assay; format: functional, cell-based; conditions: HCT-116, 48 h
[6] = tested on: EBC-1; assay: Antiproliferative activity against human EBC-1 cells incubated for 48 hrs by MTT assay; format: functional, cell-based; conditions: EBC-1, 48 h
[7] = molecular target: Histone deacetylase 1 (Homo sapiens, UniProt Q13547); assay: Inhibition of recombinant human HDAC1 using Boc-Lys(Ac)-AMC as substrate preincubated for 1 hr followed by substrate addition and measured after 2 hrs by microplate reader assay
Sequence of Histone deacetylase 1 (Q13547 whole entry): as the sequence (Q13547 whole entry, looked up) above

[8] = tested on: HCT-116; assay: Antitumor activity against human HCT-116 cells xenografted with BALB/c nude mouse assessed as tumor growth inhibition at 10 mg/kg, ip administered every 2 days for 26 days; format: functional; conditions: HCT-116, 624 h, time 26 day, read-out: TGI
[9] = tested on: HCT-116; assay: Induction of cell cycle arrest in human HCT-116 cells assessed as accumulation of cells at G2/M phase at 2 uM after 24 hrs by PI staining based flow cytometry analysis (reference value: 9.3%); format: functional
[10] = tested on: HCT-116; assay: Induction of apoptosis in human HCT-116 cells assessed as early apoptotic cells at 2 uM incubated for 24 hrs by Annexin V-FITC/PI staining based flow cytometry analysis ( Rvb = 2.36%); format: functional
[11] = tested on: HCT-116; assay: Induction of apoptosis in human HCT-116 cells assessed as late apoptotic cells at 4 uM incubated for 24 hrs by Annexin V-FITC/PI staining based flow cytometry analysis ( Rvb = 5.32%); format: functional
[12] = tested on: HCT-116; assay: Induction of cell cycle arrest in human HCT-116 cells assessed as accumulation of cells at S phase at 1 uM after 24 hrs by PI staining based flow cytometry analysis (reference value: 52.8%); format: functional
[13] = tested on: HCT-116; assay: Induction of cell cycle arrest in human HCT-116 cells assessed as accumulation of cells at S phase at 2 uM after 24 hrs by PI staining based flow cytometry analysis (reference value: 52.8%); format: functional
[14] = tested on: HCT-116; assay: Induction of apoptosis in human HCT-116 cells assessed as viable cells at 2 uM incubated for 24 hrs by Annexin V-FITC/PI staining based flow cytometry analysis ( Rvb = 92.2%); format: functional; conditions: read-out: Activity
[15] = tested on: HCT-116; assay: Induction of cell cycle arrest in human HCT-116 cells assessed as accumulation of cells at G1 phase at 2 uM after 24 hrs by PI staining based flow cytometry analysis (reference value: 37.9%); format: functional
[16] = tested on: HCT-116; assay: Induction of apoptosis in human HCT-116 cells assessed as late apoptotic cells at 2 uM incubated for 24 hrs by Annexin V-FITC/PI staining based flow cytometry analysis ( Rvb = 5.32%); format: functional
[17] = tested on: HCT-116; assay: Induction of apoptosis in human HCT-116 cells assessed as necrotic cells at 4 uM incubated for 24 hrs by Annexin V-FITC/PI staining based flow cytometry analysis ( Rvb = 0.24%); format: functional
[18] = tested on: HCT-116; assay: Induction of apoptosis in human HCT-116 cells assessed as viable cells at 4 uM incubated for 24 hrs by Annexin V-FITC/PI staining based flow cytometry analysis ( Rvb = 92.2%); format: functional; conditions: read-out: Activity
[19] = tested on: HCT-116; assay: Induction of apoptosis in human HCT-116 cells assessed as necrotic cells at 2 uM incubated for 24 hrs by Annexin V-FITC/PI staining based flow cytometry analysis ( Rvb = 0.24%); format: functional
[20] = tested on: HCT-116; assay: Induction of cell cycle arrest in human HCT-116 cells assessed as accumulation of cells at G1 phase at 1 uM after 24 hrs by PI staining based flow cytometry analysis (reference value: 37.9%); format: functional
[21] = tested on: HCT-116; assay: Induction of apoptosis in human HCT-116 cells assessed as early apoptotic cells at 4 uM incubated for 24 hrs by Annexin V-FITC/PI staining based flow cytometry analysis ( Rvb = 2.36%); format: functional
[22] = tested on: HCT-116; assay: Induction of cell cycle arrest in human HCT-116 cells assessed as accumulation of cells at G2/M phase at 1 uM after 24 hrs by PI staining based flow cytometry analysis (reference value: 9.3%); format: functional
[23] = tested on: HCT-116; assay: Induction of apoptosis in human HCT-116 cells assessed as early apoptotic cells at 0.2 uM incubated for 24 hrs by Annexin V-FITC/PI staining based flow cytometry analysis ( Rvb = 2.36%); format: functional
[24] = tested on: HCT-116; assay: Induction of apoptosis in human HCT-116 cells assessed as late apoptotic cells at 0.4 uM incubated for 24 hrs by Annexin V-FITC/PI staining based flow cytometry analysis ( Rvb = 5.32%); format: functional
[25] = tested on: HCT-116; assay: Induction of cell cycle arrest in human HCT-116 cells assessed as accumulation of cells at S phase at 0.4 uM after 24 hrs by PI staining based flow cytometry analysis (reference value: 52.8%); format: functional
[26] = tested on: HCT-116; assay: Induction of apoptosis in human HCT-116 cells assessed as necrotic cells at 0.2 uM incubated for 24 hrs by Annexin V-FITC/PI staining based flow cytometry analysis ( Rvb = 0.24%); format: functional
[27] = tested on: HCT-116; assay: Induction of cell cycle arrest in human HCT-116 cells assessed as accumulation of cells at G2/M phase at 0.1 uM after 24 hrs by PI staining based flow cytometry analysis (reference value: 9.3%); format: functional
[28] = tested on: HCT-116; assay: Induction of cell cycle arrest in human HCT-116 cells assessed as accumulation of cells at S phase at 0.1 uM after 24 hrs by PI staining based flow cytometry analysis (reference value: 52.8%); format: functional
[29] = tested on: HCT-116; assay: Induction of apoptosis in human HCT-116 cells assessed as late apoptotic cells at 0.2 uM incubated for 24 hrs by Annexin V-FITC/PI staining based flow cytometry analysis ( Rvb = 5.32%); format: functional
[30] = tested on: HCT-116; assay: Induction of apoptosis in human HCT-116 cells assessed as viable cells at 0.4 uM incubated for 24 hrs by Annexin V-FITC/PI staining based flow cytometry analysis ( Rvb = 92.2%); format: functional; conditions: read-out: Activity
[31] = tested on: HCT-116; assay: Induction of apoptosis in human HCT-116 cells assessed as necrotic cells at 0.4 uM incubated for 24 hrs by Annexin V-FITC/PI staining based flow cytometry analysis ( Rvb = 0.24%); format: functional
[32] = molecular target: T2, Class 1 histone deacetylase (Homo sapiens); assay: Inhibition of class 1 HDACs in human HCT-116 cells assessed as upregulation of acetylated alpha-H3 level incubated for 24 hrs by Western blotting analysis; format: cell-based; conditions: dose 0.5-4 µM
[33] = tested on: HCT-116; assay: Induction of cell cycle arrest in human HCT-116 cells assessed as accumulation of cells at G2/M phase at 0.4 uM after 24 hrs by PI staining based flow cytometry analysis (reference value: 9.3%); format: functional
[34] = molecular target: T3, Protein deacetylase HDAC6 (Homo sapiens); assay: Inhibition of HDAC6 in human HCT-116 cells assessed as upregulation of acetylated alpha-tubulin level incubated for 24 hrs by Western blotting analysis; format: cell-based; conditions: dose 0.5-4 µM
[35] = tested on: HCT-116; assay: Induction of cell cycle arrest in human HCT-116 cells assessed as accumulation of cells at G2/M phase at 0.2 uM after 24 hrs by PI staining based flow cytometry analysis (reference value: 9.3%); format: functional
[36] = tested on: HCT-116; assay: Induction of cell cycle arrest in human HCT-116 cells assessed as accumulation of cells at G1 phase at 0.4 uM after 24 hrs by PI staining based flow cytometry analysis (reference value: 37.9%); format: functional
[37] = tested on: HCT-116; assay: Induction of cell cycle arrest in human HCT-116 cells assessed as accumulation of cells at S phase at 0.2 uM after 24 hrs by PI staining based flow cytometry analysis (reference value: 52.8%); format: functional
[38] = tested on: HCT-116; assay: Induction of apoptosis in human HCT-116 cells assessed as viable cells at 0.2 uM incubated for 24 hrs by Annexin V-FITC/PI staining based flow cytometry analysis ( Rvb = 92.2%); format: functional; conditions: read-out: Activity
[39] = tested on: HCT-116; assay: Induction of apoptosis in human HCT-116 cells assessed as early apoptotic cells at 0.4 uM incubated for 24 hrs by Annexin V-FITC/PI staining based flow cytometry analysis ( Rvb = 2.36%); format: functional
[40] = tested on: HCT-116; assay: Induction of cell cycle arrest in human HCT-116 cells assessed as accumulation of cells at G1 phase at 0.2 uM after 24 hrs by PI staining based flow cytometry analysis (reference value: 37.9%); format: functional
[41] = tested on: HCT-116; assay: Induction of cell cycle arrest in human HCT-116 cells assessed as accumulation of cells at G1 phase at 0.1 uM after 24 hrs by PI staining based flow cytometry analysis (reference value: 37.9%); format: functional

O=C(NCC[Se][Se]CCNC(=O)/C(Cc1ccc(Br)s1)=N/O)/C(Cc1ccc(Br)s1)=N/O
IC50 [1]: 3.6 µM
inhibition [2]: Active
inhibition [3]: Active
IC50 [4]: 0.3 µM
IC50 [5]: 0.41 µM
IC50 [6]: 0.72 µM
IC50 [7]: 0.57 µM

O=C(NCCSSCCNC(=O)/C(Cc1ccc(O)c(Br)c1)=N/O)/C(Cc1ccc(O)c(Br)c1)=N/O [PSAMMAPLIN A]
inhibition in vivo at 10 mg/kg [8]: 36.1%
Activity [9]: 16.09%
Activity [10]: 9.74%
Activity [11]: 40.3%
Activity [12]: 41.24%
Activity [13]: 28.56%
viability at 2 µM [14]: 74.8%
Activity [15]: 55.34%
inhibition [2]: Active
Activity [16]: 14.8%
inhibition [3]: inactive
Activity [17]: 1.06%
viability at 4 µM [18]: 42.5%
Activity [19]: 0.67%
Activity [20]: 45.72%
IC50 [5]: 3.05 µM
Activity [21]: 16.2%
IC50 [7]: 0.026 µM
Activity [22]: 13.05%

O=C(NCC[Se][Se]CCNC(=O)/C(Cc1ccc(Br)o1)=N/O)/C(Cc1ccc(Br)o1)=N/O
Activity [23]: 11.4%
Activity [24]: 11.9%
Activity [25]: 24.54%
Activity [26]: 0.001%
Activity [27]: 18.51%
Activity [28]: 45.66%
Activity [29]: 18.2%
viability at 0.4 µM [30]: 70.3%
Activity [31]: 0%
inhibition [2]: Active
inhibition [32]: Dose-Dependent Effect
inhibition [3]: Active
Activity [33]: 19.11%
inhibition [34]: Dose-Dependent Effect
Activity [35]: 17.28%
IC50 [4]: 0.48 µM
IC50 [5]: 0.29 µM
Activity [36]: 56.35%
IC50 [6]: 0.62 µM
Activity [37]: 31.39%
viability at 0.2 µM [38]: 80.6%
Activity [39]: 17.8%
Activity [40]: 51.33%
Activity [41]: 35.83%
